Like-named read-outs stand apart in the source and are kept apart here.
What was measured:
[1] = tested on: SF-295 (CNS cancer cell line); assay: NCI-60 single-dose assay; type: cell-based, human; details: human
In short: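 Read-out is cytotoxic activity from a single-concentration test; the panel spans nine human cancer types, including leukemia, lung, colon and renal.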

[2] = tested on: CCRF-CEM (leukemia cell line); assay: NCI-60 five-dose assay; type: cell-based, human; details: Homo sapiens, five doses (10^−4–10^−8 M), read-out: Growth inhibition 50 (GI50)
[3] = tested on: HL-60(TB) (leukemia cell line); assay: NCI-60 five-dose assay; type: cell-based, human; details: Homo sapiens, five doses (10^−4–10^−8 M), read-out: Growth inhibition 50 (GI50)
[4] = tested on: K-562 (leukemia cell line); assay: NCI-60 five-dose assay; type: cell-based, human; details: Homo sapiens, K562, five doses (10^−4–10^−8 M), read-out: Growth inhibition 50 (GI50)
[5] = tested on: MOLT-4 (leukemia cell line); assay: NCI-60 five-dose assay; type: cell-based, human; details: Homo sapiens, five doses (10^−4–10^−8 M), read-out: Growth inhibition 50 (GI50)
[6] = tested on: RPMI-8226 (leukemia cell line); assay: NCI-60 five-dose assay; type: cell-based, human; details: Homo sapiens, five doses (10^−4–10^−8 M), read-out: Growth inhibition 50 (GI50)
[7] = tested on: SR (leukemia cell line); assay: NCI-60 five-dose assay; type: cell-based, human; details: Homo sapiens, five doses (10^−4–10^−8 M), read-out: Growth inhibition 50 (GI50)
[8] = tested on: COLO 205 (colon cancer cell line); assay: NCI-60 five-dose assay; type: cell-based, human; details: Homo sapiens, five doses (10^−4–10^−8 M), read-out: Growth inhibition 50 (GI50)
[9] = tested on: HCC-2998 (colon cancer cell line); assay: NCI-60 five-dose assay; type: cell-based, human; details: Homo sapiens, five doses (10^−4–10^−8 M), read-out: Growth inhibition 50 (GI50)
[10] = tested on: HCT-116 (colon cancer cell line); assay: NCI-60 five-dose assay; type: cell-based, human; details: Homo sapiens, five doses (10^−4–10^−8 M), read-out: Growth inhibition 50 (GI50)
[11] = tested on: HCT-15 (colon cancer cell line); assay: NCI-60 five-dose assay; type: cell-based, human; details: Homo sapiens, five doses (10^−4–10^−8 M), read-out: Growth inhibition 50 (GI50)
[12] = tested on: HT29 (colon cancer cell line); assay: NCI-60 five-dose assay; type: cell-based, human; details: Homo sapiens, HT-29, five doses (10^−4–10^−8 M), read-out: Growth inhibition 50 (GI50)
[13] = tested on: KM12 (colon cancer cell line); assay: NCI-60 five-dose assay; type: cell-based, human; details: Homo sapiens, five doses (10^−4–10^−8 M), read-out: Growth inhibition 50 (GI50)
[14] = tested on: MDA-MB-468 (breast cancer); assay: NCI-60 five-dose assay; type: cell-based, human; details: Homo sapiens, five-dose screen
[15] = tested on: CAKI-1 (renal cancer cell line); assay: NCI-60 five-dose assay; type: cell-based; details: Homo sapiens, five-dose screen
[16] = tested on: RXF 393 (renal cancer cells); assay: NCI-60 five-dose assay; type: cell-based, human; details: Homo sapiens, five-dose screen
[17] = tested on: Leukemia panel; assay: NCI-60 five-dose assay, panel-level GI50 (mean graph midpoint, range); type: cell-based, human; details: Homo sapiens
[18] = tested on: Melanoma panel; assay: as above; type: cell-based, human; details: Homo sapiens
[19] = tested on: Breast Cancer panel; assay: NCI-60 five-dose assay, panel-level GI50 (mean graph midpoint); type: cell-based, human; details: Homo sapiens; Breast Cancer panel average; read-out: GI50 mean graph midpoint (MG_MID)
Procedure: (§1) Due to these preliminary results, six compounds, 1, 5, 10, 11, 17, and 20, were selected for the five-dose screen NCI-programme against the same panel of tumour cell lines.
(§2) Next, a mean graph midpoint (MG_MD) was calculated for compounds 1, 5, 10, 11, 17, and 20 and reported as waterfall graphs GI50, TGI, and LC50 in the Supplementary Materials (Figures S69–S86). In Table 9, we reported the average GI50 for the nine-cancer panels, underlining both the activity and selectivity for compounds 1, 10, 11, and 20.

[20] = tested on: CNS Cancer panel; assay: as above; type: cell-based, human; details: Homo sapiens; CNS Cancer panel average; read-out: GI50 mean graph midpoint (MG_MID)
Procedure: as §1, §2

[21] = tested on: Non-Small Cell Lung Cancer panel; assay: as above; type: cell-based, human; details: Homo sapiens; Non-Small Cell Lung Cancer panel average; read-out: GI50 mean graph midpoint (MG_MID)
Procedure: as §1, §2

[22] = tested on: Ovarian Cancer panel; assay: as above; type: cell-based, human; details: Homo sapiens; Ovarian Cancer panel average; read-out: GI50 mean graph midpoint (MG_MID)
Procedure: as §1, §2

[23] = tested on: Prostate Cancer panel; assay: as above; type: cell-based, human; details: Homo sapiens; Prostate Cancer panel average; read-out: GI50 mean graph midpoint (MG_MID)
Procedure: as §1, §2

[24] = tested on: Renal Cancer panel; assay: as above; type: cell-based, human; details: Homo sapiens; Renal Cancer panel average; read-out: GI50 mean graph midpoint (MG_MID)
Procedure: as §1, §2

[25] = tested on: NCI cancer panel (all cell lines); assay: NCI-60 five-dose assay, overall mean graph midpoint (MG_MID); type: cell-based, human; details: Homo sapiens
Procedure: as §1, §2

[26] = tested on: LOX IMVI (melanoma cell line); assay: NCI-60 five-dose assay
[27] = tested on: MALME-3M (melanoma cell line); assay: NCI-60 five-dose assay
[28] = tested on: MDA-MB-435 (melanoma cell line); assay: NCI-60 five-dose assay

CCN1CCC[C@H]1CNC(=O)c1[nH]c2c(c1Cl)CCCc1ccccc1-2 [Compound 1, (S)-3-Chloro-N-(1-ethyl-2-pyrrolidinylmethyl)-5,6-dihydro-4H-benzo[6,7]cyclohepta[1,2-b]pyrrol-2-carboxamide]
growth inhibition (GI%) and cytotoxicity (negative values) [1]: −24.35%
GI50 [2]: 5960 nM
GI50 [3]: 2600 nM
GI50 [4]: 1760 nM
GI50 [5]: 3570 nM
GI50 [6]: 2290 nM
GI50 [7]: 2290 nM
GI50 [8]: 1800 nM
GI50 [9]: 2980 nM
GI50 [10]: 3120 nM
GI50 [11]: 2310 nM
GI50 [12]: 1860 nM
GI50 [13]: 3020 nM
GI50 [14]: 2680 nM
GI50 [15]: 2290 nM
GI50 [16]: 2700 nM
GI50 ([17]; Leukemia panel average, read-out: GI50 mean graph midpoint (MG_MID)): 2810 nM
GI50 ([17]; Leukemia panel, read-out: average GI50 (mean graph midpoint)): 2820 nM
GI50 ([17]; five-dose screen, cell lines as named in the sentence, read-out: GI50, range over leukemia cell lines): 1760 to 5960 nM
GI50 ([18]; Melanoma panel average, read-out: GI50 mean graph midpoint (MG_MID)): 2140 nM
GI50 ([18]; five-dose screen, number of cell lines as named in the sentence, read-out: GI50, range over melanoma cell lines): 1540 to 2030 nM
GI50 [19]: 4470 nM
GI50 [20]: 4790 nM
GI50 [21]: 7240 nM
GI50 [22]: 2290 nM
GI50 [23]: 8130 nM
GI50 [24]: 5250 nM
GI50 ([25]; MG_MID over all panels, read-out: GI50 mean graph midpoint (MG_MID)): 4260 nM
GI50 ([25]; all cell lines, read-out: MG_MID Log10 GI50 (converted)): 4790 nM
TGI (molar concentration giving total growth inhibition) [26]: 3390 nM
GI50 ([26]; Homo sapiens, read-out: Growth inhibition 50 (GI50)): 1760 nM
CC50 ([26]; Homo sapiens, read-out: LC50 (molar concentration leading to 50% net cell death)): 6310 nM
GI50 ([27]; Homo sapiens, Malme-3M, read-out: Growth inhibition 50 (GI50)): 1540 nM
CC50 ([27]; Homo sapiens, Malme-3M, read-out: LC50 (molar concentration leading to 50% net cell death)): 5620 nM
TGI (molar concentration giving total growth inhibition) ([27]; MALME-3M): 2950 nM
GI50 ([28]; Homo sapiens, MDA-MB-435, read-out: Growth inhibition 50 (GI50)): 1760 nM
CC50 ([28]; Homo sapiens, MDA-MB-435, read-out: LC50 (molar concentration leading to 50% net cell death)): 5620 nM
TGI (molar concentration giving total growth inhibition) ([28]; MDA-MB-435): 3550 nM

Source: paper PMC12566046, “Arylpiperazinyl-Benzocycloheptapyrrole-Carboxamides Endowed with Dual Anticancer and Antiviral Activities” (Molecules, 2025)
